In ChEMBL document CHEMBL1201861, “Genomics of Drug Sensitity in Cancer screening data, Wellcome Trust Sanger Institute”:

Experiments:
Assay in all cases: cells
CPC-N = type: functional, cell-based, Homo sapiens; settings: Homo sapiens, CPC-N
Description: SANGER: Inhibition of human CPC-N cell growth in a cell viability assay.

LC4-1 = type: functional, cell-based, Homo sapiens; settings: Homo sapiens, LC4-1
Description: SANGER: Inhibition of human LC4-1 cell growth in a cell viability assay.

LU-165 = type: functional, cell-based, Homo sapiens; settings: Homo sapiens, LU-165
Description: SANGER: Inhibition of human LU-165 cell growth in a cell viability assay.

NALM-6 = type: functional, cell-based, Homo sapiens; settings: Homo sapiens, NALM-6
Description: SANGER: Inhibition of human NALM-6 cell growth in a cell viability assay.

NCI-H2081 = type: functional, cell-based, Homo sapiens; settings: Homo sapiens, NCI-H2081
Description: SANGER: Inhibition of human NCI-H2081 cell growth in a cell viability assay.

NCI-H2227 = type: functional, cell-based, Homo sapiens; settings: Homo sapiens, NCI-H2227
Description: SANGER: Inhibition of human NCI-H2227 cell growth in a cell viability assay.

SCLC-21H = type: functional, cell-based, Homo sapiens; settings: Homo sapiens, SCLC-21H
Description: SANGER: Inhibition of human SCLC-21H cell growth in a cell viability assay.

ARH-77 = type: functional, cell-based, Homo sapiens; settings: Homo sapiens, ARH-77
Description: SANGER: Inhibition of human ARH-77 cell growth in a cell viability assay.

CA46 = type: functional, cell-based, Homo sapiens; settings: Homo sapiens, CA46
Description: SANGER: Inhibition of human CA46 cell growth in a cell viability assay.

WSU-NHL = type: functional, cell-based, Homo sapiens; settings: Homo sapiens, WSU-NHL
Description: SANGER: Inhibition of human WSU-NHL cell growth in a cell viability assay.

COLO-792 = type: functional, cell-based, Homo sapiens; settings: Homo sapiens, COLO-792
Description: SANGER: Inhibition of human COLO-792 cell growth in a cell viability assay.

Daoy = type: functional, cell-based, Homo sapiens; settings: Homo sapiens, Daoy
Description: SANGER: Inhibition of human Daoy cell growth in a cell viability assay.

Detroit 562 = type: functional, cell-based, Homo sapiens; settings: Homo sapiens, Detroit 562
Description: SANGER: Inhibition of human Detroit562 cell growth in a cell viability assay.

EGI-1 = type: functional, cell-based, Homo sapiens; settings: Homo sapiens, EGI-1
Description: SANGER: Inhibition of human EGI-1 cell growth in a cell viability assay.

HT1197 = type: functional, cell-based, Homo sapiens, HT-1197; settings: Homo sapiens, HT1197
Description: SANGER: Inhibition of human HT-1197 cell growth in a cell viability assay.

HT-1376 = type: functional, cell-based, Homo sapiens; settings: Homo sapiens, HT-1376
Description: SANGER: Inhibition of human HT-1376 cell growth in a cell viability assay.

HT55 = type: functional, cell-based, Homo sapiens; settings: Homo sapiens, HT55
Description: SANGER: Inhibition of human HT55 cell growth in a cell viability assay.

KOSC-2 = type: functional, cell-based, Homo sapiens; settings: Homo sapiens, KOSC-2
Description: SANGER: Inhibition of human KOSC-2 cell growth in a cell viability assay.

KYSE-150 cell line = type: functional, cell-based, Homo sapiens; settings: Homo sapiens, KYSE-150
Description: SANGER: Inhibition of human KYSE-150 cell growth in a cell viability assay.

KYSE-520 cell line = type: functional, cell-based, Homo sapiens; settings: Homo sapiens, KYSE-520
Description: SANGER: Inhibition of human KYSE-520 cell growth in a cell viability assay.

KYSE-70 cell line = type: functional, cell-based, Homo sapiens; settings: Homo sapiens, KYSE-70
Description: SANGER: Inhibition of human KYSE-70 cell growth in a cell viability assay.

LCLC-103H cell line = type: functional, cell-based, Homo sapiens; settings: Homo sapiens, LCLC-103H
Description: SANGER: Inhibition of human LCLC-103H cell growth in a cell viability assay.

M14 = type: functional, cell-based, Homo sapiens; settings: Homo sapiens, M14
Description: SANGER: Inhibition of human M14 cell growth in a cell viability assay.

MEL-HO = type: functional, cell-based, Homo sapiens; settings: Homo sapiens, MEL-HO
Description: SANGER: Inhibition of human MEL-HO cell growth in a cell viability assay.

NCI-H1573 = type: functional, cell-based, Homo sapiens; settings: Homo sapiens, NCI-H1573
Description: SANGER: Inhibition of human NCI-H1573 cell growth in a cell viability assay.

NCI-H1792 = type: functional, cell-based, Homo sapiens; settings: Homo sapiens, NCI-H1792
Description: SANGER: Inhibition of human NCI-H1792 cell growth in a cell viability assay.

OAW-42 = type: functional, cell-based, Homo sapiens; settings: Homo sapiens, OAW-42
Description: SANGER: Inhibition of human OAW-42 cell growth in a cell viability assay.

OE33 = type: functional, cell-based, Homo sapiens; settings: Homo sapiens, OE33
Description: SANGER: Inhibition of human OE33 cell growth in a cell viability assay.

OVCAR-3 = type: functional, cell-based, Homo sapiens; settings: Homo sapiens, OVCAR-3
Description: SANGER: Inhibition of human OVCAR-3 cell growth in a cell viability assay.

OVCAR-8 = type: functional, cell-based, Homo sapiens; settings: Homo sapiens, OVCAR-8
Description: SANGER: Inhibition of human OVCAR-8 cell growth in a cell viability assay.

PC-14 = type: functional, cell-based, Homo sapiens; settings: Homo sapiens, PC-14
Description: SANGER: Inhibition of human PC-14 cell growth in a cell viability assay.

PFSK-1 = type: functional, cell-based, Homo sapiens; settings: Homo sapiens, PFSK-1
Description: SANGER: Inhibition of human PFSK-1 cell growth in a cell viability assay.

RPMI-7951 = type: functional, cell-based, Homo sapiens; settings: Homo sapiens, RPMI-7951
Description: SANGER: Inhibition of human RPMI-7951 cell growth in a cell viability assay.

SCC-9 = type: functional, cell-based, Homo sapiens; settings: Homo sapiens, SCC-9
Description: SANGER: Inhibition of human SCC-9 cell growth in a cell viability assay.

SK-HEP1 = type: functional, cell-based, Homo sapiens, SK-HEP-1; settings: Homo sapiens, SK-HEP1
Description: SANGER: Inhibition of human SK-HEP-1 cell growth in a cell viability assay.

SK-LU-1 = type: functional, cell-based, Homo sapiens; settings: Homo sapiens, SK-LU-1
Description: SANGER: Inhibition of human SK-LU-1 cell growth in a cell viability assay.

SK-MEL-30 = type: functional, cell-based, Homo sapiens; settings: Homo sapiens, SK-MEL-30
Description: SANGER: Inhibition of human SK-MEL-30 cell growth in a cell viability assay.

SW1088 = type: functional, cell-based, Homo sapiens; settings: Homo sapiens, SW1088
Description: SANGER: Inhibition of human SW1088 cell growth in a cell viability assay.

SW626 = type: functional, cell-based, Homo sapiens; settings: Homo sapiens, SW626
Description: SANGER: Inhibition of human SW626 cell growth in a cell viability assay.

TCC-SUP = type: functional, cell-based, Homo sapiens; settings: Homo sapiens, TCC-SUP
Description: SANGER: Inhibition of human TCCSUP cell growth in a cell viability assay.

AGS = type: functional, cell-based, Homo sapiens; settings: Homo sapiens, AGS
Description: SANGER: Inhibition of human AGS cell growth in a cell viability assay.

BPH-1 = type: functional, cell-based, Homo sapiens; settings: Homo sapiens, BPH-1
Description: SANGER: Inhibition of human BPH-1 cell growth in a cell viability assay.

BT-20 = type: functional, cell-based, Homo sapiens; settings: Homo sapiens, BT-20
Description: SANGER: Inhibition of human BT-20 cell growth in a cell viability assay.

CAKI-1 = type: functional, cell-based, Homo sapiens; settings: Homo sapiens, CAKI-1
Description: SANGER: Inhibition of human CAKI-1 cell growth in a cell viability assay.

UO-31 = type: functional, cell-based, Homo sapiens; settings: Homo sapiens, UO-31
Description: SANGER: Inhibition of human U031 cell growth in a cell viability assay.

UACC-893 = type: functional, cell-based, Homo sapiens; settings: Homo sapiens, UACC-893
Description: SANGER: Inhibition of human UACC-893 cell growth in a cell viability assay.

CAPAN-1 = type: functional, cell-based, Homo sapiens; settings: Homo sapiens, CAPAN-1
Description: SANGER: Inhibition of human CAPAN-1 cell growth in a cell viability assay.

## COc1cc(N2CCN(C)CC2)ccc1Nc1ncc2c(n1)N(C)c1ccccc1C(=O)N2C
CPC-N
  IC50: > 8 µM
LC4-1
  IC50: 4.02 µM
LU-165
  IC50: > 8 µM
NALM-6
  IC50: 4.96 µM
NCI-H2081
  IC50: > 8 µM
NCI-H2227
  IC50: > 8 µM
SCLC-21H
  IC50: > 8 µM
ARH-77
  IC50: > 8 µM
CA46
  IC50: > 8 µM
WSU-NHL
  IC50: > 8 µM

## COc1cc(-c2nn([C@H]3CC[C@H](N4CCN(C(C)=O)CC4)CC3)c3ncnc(N)c23)ccc1NC(=O)c1cc2ccccc2n1C
CPC-N
  IC50: > 5.12 µM
LC4-1
  IC50: > 5.12 µM
LU-165
  IC50: > 5.12 µM
NALM-6
  IC50: 2.24 µM
NCI-H2081
  IC50: > 5.12 µM
SCLC-21H
  IC50: > 5.12 µM
ARH-77
  IC50: > 5.12 µM
CA46
  IC50: > 5.12 µM
WSU-NHL
  IC50: > 5.12 µM

## Cc1cc([N+](=O)[O-])ccc1NS(=O)(=O)c1cc(Cl)ccc1Cl
COLO-792
  IC50: 2.01 µM
CPC-N
  IC50: > 32 µM
Daoy
  IC50: 4.14 µM
Detroit 562
  IC50: 5.32 µM
EGI-1
  IC50: 24.8 µM
HT1197
  IC50: 11.2 µM
HT-1376
  IC50: 3.81 µM
HT55
  IC50: > 32 µM
KOSC-2
  IC50: > 32 µM
KYSE-150 cell line
  IC50: 5.06 µM
KYSE-520 cell line
  IC50: 27.6 µM
KYSE-70 cell line
  IC50: 0.812 µM
LC4-1
  IC50: 13.7 µM
LCLC-103H cell line
  IC50: 5.6 µM
LU-165
  IC50: > 32 µM
M14
  IC50: > 32 µM
MEL-HO
  IC50: 6.53 µM
NALM-6
  IC50: 6.28 µM
NCI-H1573
  IC50: > 32 µM
NCI-H1792
  IC50: 8.53 µM
NCI-H2081
  IC50: > 32 µM
NCI-H2227
  IC50: > 32 µM
OAW-42
  IC50: 2.78 µM
OE33
  IC50: 9.49 µM
OVCAR-3
  IC50: 5.81 µM
OVCAR-8
  IC50: 4.26 µM
PC-14
  IC50: 20 µM
PFSK-1
  IC50: 12.4 µM
RPMI-7951
  IC50: 29.3 µM
SCC-9
  IC50: > 32 µM
SCLC-21H
  IC50: 4.84 µM
SK-HEP1
  IC50: 2.88 µM
SK-LU-1
  IC50: 3.27 µM
SK-MEL-30
  IC50: 5.76 µM
SW1088
  IC50: 12.3 µM
SW626
  IC50: 3.12 µM
TCC-SUP
  IC50: 4.81 µM
AGS
  IC50: 5.37 µM
ARH-77
  IC50: > 32 µM
BPH-1
  IC50: 12.2 µM
BT-20
  IC50: 8.51 µM
CA46
  IC50: 7.16 µM
CAKI-1
  IC50: 13.2 µM
UO-31
  IC50: 8.66 µM
UACC-893
  IC50: 3.06 µM
WSU-NHL
  IC50: 11.8 µM
CAPAN-1
  IC50: 2.4 µM

## OCCCNc1cc(-c2ccnc(Nc3cccc(Cl)c3)n2)ccn1
CPC-N
  IC50: > 0.256 µM
LC4-1
  IC50: 0.0713 µM
LU-165
  IC50: > 0.256 µM
NALM-6
  IC50: 0.0468 µM
NCI-H2081
  IC50: > 0.256 µM
SCLC-21H
  IC50: > 0.256 µM
ARH-77
  IC50: 0.0819 µM
CA46
  IC50: > 0.256 µM
WSU-NHL
  IC50: > 0.256 µM

## N#Cc1c(O)c2c(-c3ccc(-c4ccccc4O)cc3)csc2[nH]c1=O
COLO-792
  IC50: > 1.02 µM
CPC-N
  IC50: > 1.02 µM
Daoy
  IC50: > 1.02 µM
Detroit 562
  IC50: > 1.02 µM
EGI-1
  IC50: > 1.02 µM
HT1197
  IC50: > 1.02 µM
HT-1376
  IC50: > 1.02 µM
HT55
  IC50: > 1.02 µM
KOSC-2
  IC50: > 1.02 µM
KYSE-150 cell line
  IC50: > 1.02 µM
KYSE-520 cell line
  IC50: > 1.02 µM
KYSE-70 cell line
  IC50: > 1.02 µM
LC4-1
  IC50: 0.563 µM
LCLC-103H cell line
  IC50: > 1.02 µM
LU-165
  IC50: > 1.02 µM
M14
  IC50: > 1.02 µM
MEL-HO
  IC50: > 1.02 µM
NALM-6
  IC50: 0.0317 µM
NCI-H1792
  IC50: > 1.02 µM
NCI-H2081
  IC50: > 1.02 µM
NCI-H2227
  IC50: > 1.02 µM
OAW-42
  IC50: > 1.02 µM
OE33
  IC50: > 1.02 µM
OVCAR-3
  IC50: > 1.02 µM
OVCAR-8
  IC50: > 1.02 µM
PC-14
  IC50: > 1.02 µM
PFSK-1
  IC50: > 1.02 µM
RPMI-7951
  IC50: > 1.02 µM
SCC-9
  IC50: > 1.02 µM
SCLC-21H
  IC50: > 1.02 µM
SK-HEP1
  IC50: > 1.02 µM
SK-LU-1
  IC50: > 1.02 µM
SK-MEL-30
  IC50: > 1.02 µM
SW1088
  IC50: > 1.02 µM
SW626
  IC50: > 1.02 µM
TCC-SUP
  IC50: > 1.02 µM
AGS
  IC50: > 1.02 µM
ARH-77
  IC50: 0.141 µM
BPH-1
  IC50: > 1.02 µM
BT-20
  IC50: > 1.02 µM
CA46
  IC50: 0.196 µM
CAKI-1
  IC50: > 1.02 µM
UO-31
  IC50: > 1.02 µM
UACC-893
  IC50: > 1.02 µM
WSU-NHL
  IC50: 0.297 µM
CAPAN-1
  IC50: 0.256 µM

## Cc1ccc(-c2c(C(=O)CCl)n(CCCO)c3ncnc(N)c23)cc1
CPC-N
  IC50: > 4 µM
LC4-1
  IC50: > 4 µM
LU-165
  IC50: > 4 µM
NALM-6
  IC50: > 4 µM
NCI-H2081
  IC50: > 4 µM
SCLC-21H
  IC50: > 4 µM
ARH-77
  IC50: > 4 µM
CA46
  IC50: > 4 µM
WSU-NHL
  IC50: > 4 µM
